Source: US11459332B2, “Substituted 2-azabicyclo[3.1.0]hexanes as TRK kinases inhibitors” (FOCHON BIOSCIENCES, LTD., priority 2018, dated 2022)

Tests used:
Format in all cases: cell-based
[1] = test system: KM12 cells; assay: KM12 cells proliferation inhibition (MTS), mechanism-based TRK assay; settings: Homo sapiens, 72 h
Excerpt: (§1) MTS testing kit was purchased from Promega (Madison, Wis., USA). The RPMI-1640, Fetal bovine serum and Penicillin-Streptomycin were purchased from Gibco (San Francisco, Calif., USA). Dimethyl sulfoxide (DMSO) and Puromycin were purchased from Sigma (St. Louis, Mo., USA). Mouse interleukin-3 (IL-3) was purchased from Cell signaling Technology (Boston, Mass., USA).
To investigate whether a compound is able to inhibit the activity of TRK in cells, a mechanism-based assay using KM12 cells was developed. In this assay, inhibition of TRK was detected by the inhibition of KM12 cells proliferation. KM12 cells were cultured in culture flasks to 40-80% confluence in RPMI-1640 plus 10% fetal bovine serum. Cells were collected and plated onto 96-well plates at 1000 cells/well. Plates were incubated at 37° C., with 5% CO2 for 4 h. Compounds were added to the plates, the final compound concentrations were […], 123.5, 41.2, 13.7, 4.6 and 1.5 nM. Place plates at 37° C., with 5% CO2 for KM12 cells 72 h. 20 μl MTS/100 μl medium mixture solution were added to each well and incubate the plates for exactly 2 h. Stop the reaction by adding 25 μl 10% SDS per well. Measure absorbance at 490 nm and 650 nm (reference wavelength). IC50 was calculated using GraphPad Prism 5.0.

[2] = target: T1, ETV6-TRKC (Homo sapiens, UniProt Q16288); assay: Engineered Ba/F3 cell proliferation inhibition (MTS), ETV6-TRKC; settings: Ba/F3-ETV6-TRKC cells, 72 h
T1 construct: ETV6 (fusion partner, N-terminal part); expressed in transfected cells; the other entry of the earlier key: ETV6 (P41212, Transcription factor ETV6)
Excerpt: as §1
(§2) To investigate whether a compound is able to inhibit the activity of TRK fusion mutation in cells, a mechanism-based assay using engineered Ba/F3 cell lines stably overexpressing oncogenic rearrangement or gene mutation of TRK (TPM3-TRKA, TPM3-TRKA-G595R, AFAP1-TRKB, ETV6-TRKC and ETV6-TRKC-G623R) were developed. In this assay, inhibition of TRK fusion mutation was detected by the cell proliferation inhibition of engineered Ba/F3 cells. Engineered Ba/F3 cells were cultured in culture flasks to 40-80% confluence in RPMI-1640 supplemented with 10% fetal bovine serum, 2 ug/mL puromycin. Cells were collected and plated onto 96-well plates at desired cell density (Ba/F3-TPM3-TRKA: 3×10^4/mL, Ba/F3-TPM3-TRKA-G595R: 1×10^5/mL, Ba/F3-AFAP1-TRKB: 1×10^5/mL, Ba/F3-ETV6-TRKC: 3×10^4/mL, Ba/F3-ETV6-TRKC-G623R: 3×10^4/mL). Plates were incubated at 37° C., with 5% CO2 for 4 h. Compounds were then added to the plates with the final compound concentrations of 10000, 3333, 1111, 270, 123, 41.2, 13.7, 4.6 and 1.5 nM. Plates were incubated at 37° C., with 5% CO2 for 72 h. A mixture of 20 μl MTS/100 μl medium were added to each well and the plates were incubated at 37° C., with 5% CO2 for exactly 2 h. The reaction was stopped by adding 25 μl of 10% SDS per well. The absorbance was measured at 490 nm and 650 nm (reference wavelength). IC50 was calculated using GraphPad Prism 5.0 software.

[3] = target: T2, TPM3-TRKA-G595R (Homo sapiens, UniProt P04629, G595R); assay: Engineered Ba/F3 cell proliferation inhibition (MTS), TPM3-TRKA-G595R; settings: Ba/F3-TPM3-TRKA-G595R cells, 72 h
T2 construct: TPM3 (fusion partner, N-terminal part); expressed in transfected cells; the other entry of the earlier key: TPM3 (P06753, Tropomyosin alpha-3 chain)
Excerpt: as §1, §2

[4] = target: T3, TPM3-TRKA (Homo sapiens, UniProt P04629); assay: Engineered Ba/F3 cell proliferation inhibition (MTS), TPM3-TRKA; settings: Ba/F3-TPM3-TRKA cells, 72 h
T3 construct: TPM3 (fusion partner, N-terminal part); expressed in transfected cells; the other entry of the earlier key: TPM3 (P06753, Tropomyosin alpha-3 chain)
Excerpt: as §1, §2

[5] = target: T4, ETV6-TRKC-G623R (Homo sapiens, UniProt Q16288, G623R, cells depend on it); assay: Engineered Ba/F3 cell proliferation inhibition (MTS), ETV6-TRKC-G623R; settings: 72 h, read-out: ETV6-TRKC-G623R IC50
T4 construct: fused on or other part: P41212 (Transcription factor ETV6)
Excerpt: as §1
as §2, with “Compounds were then added to the plates with the final compound concentrations of 10000, 3333, 1111, 270, 123, 41.2, 13.7, 4.6 and 1.5 nM. Plates were incubated at 37° C., with 5% CO2 for 72 h. A mixture of 20 μl MTS/100 μl medium were added to each well and the plates were incubated at 37° C., with 5% CO2 for exactly 2 h. The reaction was stopped by adding 25 μl of 10% SDS per well.” left out

[6] = target: T5, AFAP1-TRKB (Homo sapiens, UniProt Q16620); assay: Engineered Ba/F3 cell proliferation inhibition (MTS), AFAP1-TRKB; settings: Ba/F3-AFAP1-TRKB cells, 72 h
T5 construct: AFAP1 (fusion partner, N-terminal part); expressed in transfected cells; the other entry of the earlier key: AFAP1 (Q8N556, Actin filament-associated protein 1)
Excerpt: as §1
as §2, with “Compounds were then added to the plates with the final compound concentrations of 10000, 3333, 1111, 270, 123, 41.2, 13.7, 4.6 and 1.5 nM. Plates were incubated at 37° C., with 5% CO2 for 72 h. A mixture of 20 μl MTS/100 μl medium were added to each well and the plates were incubated at 37° C., with 5% CO2 for exactly 2 h. The reaction was stopped by adding 25 μl of 10% SDS per well.” left out

T3 sequence (P04629 510-796 limits assumed): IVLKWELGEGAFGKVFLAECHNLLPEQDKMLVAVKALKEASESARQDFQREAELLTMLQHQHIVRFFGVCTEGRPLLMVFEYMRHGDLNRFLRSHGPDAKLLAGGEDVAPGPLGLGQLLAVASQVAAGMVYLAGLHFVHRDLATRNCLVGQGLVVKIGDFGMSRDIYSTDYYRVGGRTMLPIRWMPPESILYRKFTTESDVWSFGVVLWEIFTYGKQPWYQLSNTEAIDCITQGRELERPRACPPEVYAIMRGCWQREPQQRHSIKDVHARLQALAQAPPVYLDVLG
T1 sequence (Q16288 530-825 isoform Q16288-3 limits assumed): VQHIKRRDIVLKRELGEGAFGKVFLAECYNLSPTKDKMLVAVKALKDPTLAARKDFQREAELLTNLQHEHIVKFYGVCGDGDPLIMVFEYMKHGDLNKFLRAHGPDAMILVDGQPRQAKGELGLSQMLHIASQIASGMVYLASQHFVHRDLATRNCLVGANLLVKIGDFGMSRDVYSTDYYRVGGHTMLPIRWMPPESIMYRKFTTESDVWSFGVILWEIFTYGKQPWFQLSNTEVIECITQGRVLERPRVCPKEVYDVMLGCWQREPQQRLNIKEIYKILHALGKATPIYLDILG
T4 sequence (Q16288 whole entry G623R, the tested form may be a part): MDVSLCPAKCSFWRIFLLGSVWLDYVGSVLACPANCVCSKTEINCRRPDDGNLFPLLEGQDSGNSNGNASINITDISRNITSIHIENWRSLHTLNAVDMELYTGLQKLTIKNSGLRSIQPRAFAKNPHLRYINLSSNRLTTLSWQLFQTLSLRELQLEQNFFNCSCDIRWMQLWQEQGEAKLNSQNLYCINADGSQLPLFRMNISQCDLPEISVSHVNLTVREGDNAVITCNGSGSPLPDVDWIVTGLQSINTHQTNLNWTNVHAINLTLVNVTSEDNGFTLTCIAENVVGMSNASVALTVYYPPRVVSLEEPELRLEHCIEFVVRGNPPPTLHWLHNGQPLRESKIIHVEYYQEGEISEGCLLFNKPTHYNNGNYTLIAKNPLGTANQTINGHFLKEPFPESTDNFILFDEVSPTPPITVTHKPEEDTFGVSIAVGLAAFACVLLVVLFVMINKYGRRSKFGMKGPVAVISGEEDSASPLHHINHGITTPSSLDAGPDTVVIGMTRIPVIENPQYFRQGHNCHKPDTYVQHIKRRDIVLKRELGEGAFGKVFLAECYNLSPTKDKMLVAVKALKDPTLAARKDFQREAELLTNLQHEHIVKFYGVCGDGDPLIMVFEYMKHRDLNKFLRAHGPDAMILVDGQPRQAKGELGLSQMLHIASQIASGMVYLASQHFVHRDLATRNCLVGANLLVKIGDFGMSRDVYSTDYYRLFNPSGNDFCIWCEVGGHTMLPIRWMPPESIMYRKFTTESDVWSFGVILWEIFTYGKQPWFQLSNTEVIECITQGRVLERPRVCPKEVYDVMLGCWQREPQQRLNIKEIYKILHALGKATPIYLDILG
T2 sequence (P04629 510-796 G595R limits assumed): as the sequence (P04629 510-796 limits assumed) above, with G86R counted along it
T5 sequence (Q16620 538-822 limits assumed): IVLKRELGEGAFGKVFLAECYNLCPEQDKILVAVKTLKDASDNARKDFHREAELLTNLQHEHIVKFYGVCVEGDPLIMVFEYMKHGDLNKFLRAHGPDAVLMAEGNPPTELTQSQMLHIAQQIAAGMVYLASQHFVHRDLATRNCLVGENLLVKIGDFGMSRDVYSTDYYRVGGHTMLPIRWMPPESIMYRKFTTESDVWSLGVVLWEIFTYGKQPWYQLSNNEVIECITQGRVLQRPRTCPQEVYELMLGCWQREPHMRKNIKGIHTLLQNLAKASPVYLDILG

Row | Structure (SMILES) | IC50 [1] | IC50 [2] | IC50 [3] | IC50 [4] | GI50 [5] | IC50 [6]
1 | CC(C)c1nnc(-c2cnn3ccc(N4CC[C@H]5C[C@]54c4cc(F)ccc4F)nc23)s1 [Example 26, 2-(5-((1R,5S)-1-(2,5-difluorophenyl)-2-azabicyclo [3.1.0]hexan-2-yl)pyrazolo[1,5-a]pyrimidin-3-yl)-5-isopropyl-1,3,4-thiadiazole] | 4 nM | 1 nM | 15 nM | 2 nM | 6 nM | –
2 | CC(C)(C)c1nnc(-c2cnn3ccc(N4CC[C@H]5C[C@]54c4cc(F)ccc4F)nc23)s1 [Example 27, 2-(tert-butyl)-5-(5-((1R,5S)-1-(2,5-difluorophenyl)-2-azabicyclo[3.1.0]hexan-2-yl)pyrazolo[1,5-a]pyrimidin-3-yl)-1,3,4-thiadiazole] | 11 nM | 11 nM | 21 nM | 2 nM | 20 nM | –
3 | O=C(Nc1cnn2ccc(N3CC[C@H]4C[C@]43c3cc(F)ccc3F)nc12)N1CC[C@H](O)C1 [Example 1, (S)—N-(5-((1R,5S)-1-(2,5-difluorophenyl)-2-azabicyclo[3.1.0]hexan-2-yl)pyrazolo[1,5-a]pyrimidin-3-yl)-3-hydroxypyrrolidine-1-carboxamide] | 1 nM | 1 nM | – | 3 nM | – | 14 nM
